Laboratory results from article PMC6386767, “Characterization of recombinant fructose-1,6-bisphosphatase gene mutations: evidence of inhibition/activation of FBPase protein by gene mutation” (Bioscience Reports, 2019).
Numbering of substitutions follows the chain as printed. Each block holds one compound with its values, some of them ahead of it.

Assays:
pig kidney FBPase Y113A [1] = biological target: T1, pig kidney FBPase Y113A (Sus scrofa, UniProt P00636, Y114A); experiment: Differential scanning fluorimetry, Y113A mutant; assay type: binding; conditions: enzyme Y113A
T1 construct: His6 (C); made in house; host or cells: Escherichia coli BL21 (DE3)
T1 sequence (P00636 1-338 Y114A): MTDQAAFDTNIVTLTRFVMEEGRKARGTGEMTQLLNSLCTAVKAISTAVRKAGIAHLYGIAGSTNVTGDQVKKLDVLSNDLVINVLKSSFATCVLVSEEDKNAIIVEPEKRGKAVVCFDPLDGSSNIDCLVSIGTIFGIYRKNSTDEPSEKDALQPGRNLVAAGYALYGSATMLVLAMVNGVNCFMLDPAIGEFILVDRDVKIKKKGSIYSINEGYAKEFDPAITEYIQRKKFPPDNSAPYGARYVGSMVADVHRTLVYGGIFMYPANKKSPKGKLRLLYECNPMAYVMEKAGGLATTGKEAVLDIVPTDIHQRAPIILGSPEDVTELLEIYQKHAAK
Procedure: (§1) Differential scanning fluorimetry (DSF) assays were designed and implemented to run on WT and each mutant for the purpose of determining relative stabilities by melting point, and to detect structural changes in the enzymes upon ligand binding. Thermal shift assays were performed with a Light Cycler 96 System Real-Time PCR machine (Roche) using Sypro-Orange dye (Invitrogen) and thermal ramping (0.25°C per min between 20 and 85°C). […] Data were processed using the Boltzmann equation to generate sigmoidal denaturation curves, and average Tm/ΔTm values were calculated as previously described using GraphPad Prism software package.

pig kidney FBPase L73A = biological target: T2, pig kidney FBPase L73A (Sus scrofa, UniProt P00636, L74A); experiment: Differential scanning fluorimetry, L73A mutant; assay type: binding; conditions: enzyme L73A
T2 construct: His6 (C); made in house; host or cells: Escherichia coli BL21 (DE3)
T2 sequence (P00636 1-338 L74A): T1 sequence (P00636 1-338 Y114A) with L74A, A114Y
Procedure: as §1

pig kidney FBPase K112A = biological target: T3, pig kidney FBPase K112A (Sus scrofa, UniProt P00636, K113A); experiment: Differential scanning fluorimetry, K112A mutant; assay type: binding; conditions: enzyme K112A
T3 construct: His6 (C); made in house; host or cells: Escherichia coli BL21 (DE3)
T3 sequence (P00636 1-338 K113A): T1 sequence (P00636 1-338 Y114A) with K113A, A114Y
Procedure: as §1

pig kidney FBPase Y113A [2] = biological target: T1, pig kidney FBPase Y113A; experiment: Malachite Green kinetic assay, Y113A mutant; assay type: biochemical; conditions: for IC50: FBP substrate 10 to 50 µM
Procedure: (§2) For the kinetic assay, a standard curve was obtained from an ammonium molybdate Malachite Green inorganic phosphate assay (OD660 nm). The purified FBPase protein was dialyzed ×3 in 50 mM Tris buffer at pH 7.5 at 4°C. For enzyme concentration, absorbency values were recorded for all five mutant proteins using spectrophotometer readings at OD280 nm. To quantitate enzyme concentration, the enzymes were calculated based on the quantity of micrograms per microliter (µg/µl) present. Final concentration of WT and mutant enzymes was between 2.5 and 5.0 µg/µl. Using a colorimetric assay as described below, specific activity (SA) was determined. At last, all kinetic and binding assays described below were performed in 50 mM Tris pH 7.5.
(§3) Kinetic assays were performed for WT and mutant enzymes to identify functional differences between the WT enzyme and the mutants. […] Readings recorded at OD660 nm for each enzyme were applied to the standard curve equation. Micromoles of inorganic phosphate were calculated to determine the SA of mutant enzymes.
(§4) For each clone, the kinetic assay was performed in duplicates of triplicates. Malachite Geen was used to detect inorganic phosphate. Two separate clones were processed independently of the same mutant. All kinetic data were fit to symmetric sigmoidal curve using Origin software based on methods previously described [[27–29]]. More specifically, for kinetic parameters established via curve fitting (shown in Tables 1–3; and in Figure 5A,B), the equation y = d + (a − d)/1 + (x/c)^b was used where ‘x’ is represented by apparent Michelis constant (Km) when y = Vmax. […] P-values were significant at <0.001 and represent a comparison with the WT enzyme.

pig kidney FBPase L56A = biological target: T4, pig kidney FBPase L56A (Sus scrofa, UniProt P00636, L57A); experiment: Malachite Green kinetic assay, L56A mutant; assay type: biochemical; conditions: enzyme L56A; for IC50: FBP substrate 10 to 50 µM
T4 construct: His6 (C); made in house; host or cells: Escherichia coli BL21 (DE3)
T4 sequence (P00636 1-338 L57A): T1 sequence (P00636 1-338 Y114A) with L57A, A114Y
Procedure: as §2, §3, §4

pig kidney FBPase WT = biological target: T5, pig kidney FBPase WT (Sus scrofa, UniProt P00636); experiment: Malachite Green kinetic assay, WT enzyme; assay type: biochemical; conditions: for IC50: FBP substrate 10 to 50 µM
T5 construct: His6 (C); made in house; host or cells: Escherichia coli BL21 (DE3)
T5 sequence (P00636 1-338): T1 sequence (P00636 1-338 Y114A) with A114Y
Procedure: as §2, §3, §4

[3] = association (binding) constant from saturation curve

reduction in melting temperature, presence of AMP vs absence of ligand (pig kidney FBPase Y113A [1]): 5–9 °
melting point of enzyme with AMP (100 µM) (pig kidney FBPase Y113A [1]; AMP 100 µM): 45.0 (± 1.25) °C
melting point of enzyme with AMP (100 µM) (pig kidney FBPase L73A; AMP 100 µM): 56.0 (± 3.00) °C
reduction in melting temperature, presence of AMP vs absence of ligand (pig kidney FBPase K112A): 5–9 °
melting point of enzyme with AMP (100 µM) (pig kidney FBPase K112A; AMP 100 µM): 42.0 (± 2.50) °C
IC50 (pig kidney FBPase Y113A [2]; enzyme Y113A_1): 48600 nM
IC50 (pig kidney FBPase Y113A [2]; enzyme Y113A_2): 55300 nM
AMP Hill coefficient (pig kidney FBPase L56A): 2.3 (± 0.2)
IC50 (pig kidney FBPase L56A): 7350 nM
AMP Hill coefficient (pig kidney FBPase WT): 2.2 (± 0.1)
IC50 (pig kidney FBPase WT): 7500 nM
SMILES: Nc1ncnc2c1ncn2[C@@H]1O[C@H](COP(=O)(O)O)[C@@H](O)[C@H]1O [AMP]

Ki (pig kidney FBPase Y113A [2]; enzyme Y113A): 250 nM
IC50 (pig kidney FBPase Y113A [2]; enzyme Y113A_1): 1800 nM
IC50 (pig kidney FBPase Y113A [2]; enzyme Y113A_2): 1700 nM
Ki (pig kidney FBPase L56A): 1250 nM
IC50 (pig kidney FBPase L56A): 7500 nM
Ki (pig kidney FBPase WT): 250 nM
IC50 (pig kidney FBPase WT): 1500 nM
SMILES: O=P(O)(O)OC[C@H]1O[C@@](CO)(OP(=O)(O)O)[C@@H](O)[C@@H]1O [F2,6-BP, fructose-2,6-bisphosphate]

melting point of enzyme with Mg^2+ ([…]) (pig kidney FBPase Y113A [1]; Mg^2+ […]): 52.0 (± 1.50) °C
melting point of enzyme with Mg^2+ ([…]) (pig kidney FBPase L73A; Mg^2+ […]): 56.5 (±2.25) °C
melting point of enzyme with Mg^2+ ([…]) (pig kidney FBPase K112A; Mg^2+ […]): 51.0 (± 2.50) °C
Ka (pig kidney FBPase Y113A [2]; enzyme Y113A, association (binding) constant from saturation curve): 0.48 (± 0.16) mM
Hill coefficient (pig kidney FBPase Y113A [2]; enzyme Y113A, for magnesium): 2.00 (± 0.19)
Ka (pig kidney FBPase L56A; [3]): 0.52(± 0.13) mM
Hill coefficient (pig kidney FBPase L56A; for magnesium): 2.75 (± 0.16)
Ka (pig kidney FBPase WT; [3]): 0.50 (± 0.18) mM
Hill coefficient (pig kidney FBPase WT; for magnesium): 2.10 (± 0.15)
SMILES: [Mg+2] [Mg^2+, magnesium]
